Where “and” joins values, the source holds several entries; their conditions need not be identical. Identical values can stand only once.
What follows are molecules tested against Replicase polyprotein 1ab (Severe acute respiratory syndrome coronavirus 2, UniProt P0DTD1) (assay: Various Assay).

Row | SMILES | IC50 [nM]
1 | O=C[C@H](CC1CCNC1=O)NC(=O)[C@H](Cc1ccccc1)NC(=O)c1cc2ccccc2[nH]1 (some centres undefined) [cmdc.202100576, 18b] | 34
2 | CC(C)[C@H](NC(=O)c1cc2ccccc2[nH]1)C(=O)N[C@@H](Cc1ccccc1)C(=O)N[C@H](C=O)CC1CCNC1=O (some centres undefined) [cmdc.202100576, 18d] | 68
3 | O=C[C@H](CC1CCNC1=O)NC(=O)[C@H](Cc1ccccc1)NC(=O)c1ccc2c(c1)OCO2 (some centres undefined) [cmdc.202100576, 18e] | 78

The molecules below were run against Replicase polyprotein 1ab (Severe acute respiratory syndrome coronavirus, UniProt P0C6X7) (assay: Various Assay).

Row | SMILES | IC50 [nM] | Ki [nM]
4 | O=C[C@H](CC1CCNC1=O)NC(=O)[C@H](Cc1ccccc1)NC(=O)c1cc2cc(F)ccc2[nH]1 (some centres undefined) | 111 | 
5 | COc1cccc2[nH]c(C(=O)N(C)[C@@H](CC(C)C)C(=O)N[C@@H](C[C@@H]3CCNC3=O)C(=O)CO)cc12 [WO2005113580-Ex-29] | 83 | 
6 | COc1cccc2[nH]c(C(=O)N[C@@H](CC(C)C)C(=O)N[C@@H](C[C@@H]3CCNC3=O)C(=O)COC(=O)C3CC3)cc12 [WO2005113580-Ex-37] | 162 | 
7 | COc1cccc2[nH]c(C(=O)N[C@@H](CC(C)C)C(=O)N[C@@H](C[C@@H]3CCNC3=O)C(C)=O)cc12 [WO2006061714, P38.5] | 2300 | 
8 | CC(C)C[C@H](NC(=O)c1nc2ccccc2[nH]1)C(=O)N[C@H](C=O)C[C@@H]1CCNC1=O [WO2006061714-ID-09] | 30 | 
9 | O=C(Nc1ccc(NC(=O)c2cc(B(O)O)cc([N+](=O)[O-])c2)cc1)c1cc(B(O)O)cc([N+](=O)[O-])c1 [acs.jmedchem.1c00409_ST.31] |  | 22
10 | O=C(Oc1ccc(OC(=O)c2cc(B(O)O)cc([N+](=O)[O-])c2)cc1)c1cc(B(O)O)cc([N+](=O)[O-])c1 [cmdc.202100576, 4b] |  | 6700
11 | Nc1cc(B(O)O)cc(C(=O)OCc2cccc(B(O)O)c2)c1 [cmdc.202100576, 4c] |  | 3500
12 | O=C(O)c1cc(O)cc(B(O)O)c1 [cmdc.202100576, 4d] |  | 3500
13 | O=C(Oc1c(Cl)cc(Cl)cc1[N+](=O)[O-])c1cc(B(O)O)cc([N+](=O)[O-])c1 [cmdc.202100576, 4e] |  | 6900
14 | CCOC(=O)/C=C/[C@@H](C[C@H]1CCNC1=O)NC(=O)[C@@H](CC(C)C)NC(=O)[C@H](NC(=O)OCc1ccccc1)C(C)OC(C)(C)C (some centres undefined) [cmdc.202100576, 5b] |  | 58
15 | CC(C)C[C@H](NC(=O)[C@@H](NC(=O)OCc1ccccc1)C(C)OC(C)(C)C)C(=O)N[C@H](/C=C/C(=O)OC1CC1)C[C@@H]1CCNC1=O (some centres undefined) [cmdc.202100576, 5e] |  | 99
16 | COC(=O)/C=C/[C@H](C[C@@H]1CCNC1=O)NC(=O)[C@H](CC(C)C)NC(=O)[C@@H](NC(=O)OCc1ccccc1)C(C)NC(=O)C(C)(C)C (some centres undefined) [cmdc.202100576, 5f] |  | 38
17 | O=C(Oc1ccc(S(=O)(=O)c2ccc(OC(=O)C(Cl)=C(Cl)Cl)cc2Cl)cc1)C(Cl)=C(Cl)Cl [cmdc.202100576, 7b] | 900 | 
18 | O=C(Sc1nnc(C(F)(F)F)[nH]1)C1CCC(C#Cc2ccccc2)O1 (centres undefined) [cmdc.202100576, 7c] | 3000 | 
19 | O=c1c(O[C@@H]2O[C@H](CO[C@@H]3OC[C@H](O)[C@H](O)[C@H]3O)[C@@H](O)[C@H](O)[C@H]2O)c(-c2ccc(O)c(O)c2)oc2cc(O)cc(O)c12 [cmdc.202100576, 12c] | 31600 | 
20 | CC1CCN(C(=O)c2ccc3c(c2)C(=O)C(=O)N3Cc2ccc3ccccc3c2)CC1 [cmdc.202100576, 13b] | 19700 | 
21 | O=C1C(=O)N(Cc2ccccc2)c2ccc(C(=O)N3CCCC3)cc21 [cmdc.202100576, 13c] | 22900 | 
22 | CN1C(=O)C(=O)c2cc(C(=O)N3CCOCC3)ccc21 [cmdc.202100576, 13d] | 36400 | 
23 | O=C1C(=O)N(Cc2ccc3ccccc3c2)c2ccc(C(=O)N3CCCC3)cc21 [cmdc.202100576, 13e] | 70300 | 
24 | O=C1C(=O)N(Cc2ccc3ccccc3c2)c2ccc(C(=O)N3CCCCC3)cc21 [cmdc.202100576, 13f] | 87800 | 
25 | CC(C)C[C@@H](NC(=O)OCc1ccccc1)C(=O)N[C@@H](C=O)CC1CCNC1=O (some centres undefined) [cmdc.202100576, 14b] | 3500 | 
26 | CC(C)C[C@@H](NC(=O)OCc1ccccc1)C(=O)N[C@H](CC1CCNC1=O)C(=O)C(=O)NC(C)C (some centres undefined) [cmdc.202100576, 14d] | 4700 | 
27 | CC(C)C[C@@H](NC(=O)[C@H](Cc1cccc2ccccc12)NC(=O)OCc1ccccc1)C(=O)N[C@@H](C=O)CC1CCNC1=O (some centres undefined) [cmdc.202100576, 14e] | 230 | 

Row | SMILES | IC50 [nM] | Ki [nM]
28 | CC(C)C[C@@H](NC(=O)[C@H](Cc1cccc2ccccc12)NC(=O)OCc1ccccc1)C(=O)N[C@H](CC1CCNC1=O)C(=O)C(=O)NC(C)C (some centres undefined) [cmdc.202100576, 14f] | 810 | 
29 | O=C1c2c(O)cc(O)cc2O[C@@H](c2ccc(O)c(O)c2)[C@@H]1O [cmdc.202100576, 15] | 73000 | 
30 | CC(C)C[C@H]1C(=O)N[C@H](C=O)CCC(=O)NCCCn2cc(nn2)C[C@@H]1CC(=O)OCc1ccccc1 [cmdc.202100576, 16c] | 15500 | 
31 | Cc1ccc(SSc2nccs2)cc1 [cmdc.202100576, 17b] | 1300 | 
32 | CC(=O)Nc1cnc(SSc2ccccc2[N+](=O)[O-])s1 [cmdc.202100576, 17c] | 1900 | 
33 | O=[N+]([O-])c1ccccc1SSc1nccs1 [cmdc.202100576, 17d] | 2000 | 
34 | COC(=O)c1c[nH]c(SSc2ccccc2[N+](=O)[O-])n1 [cmdc.202100576, 17e] | 2000 | 
35 | Fc1ccc(SSc2nccs2)cc1 [cmdc.202100576, 17f] | 2200 | 
36 | O=C[C@H](CC1CCNC1=O)NC(=O)[C@H](Cc1ccccc1)NC(=O)c1cc2ccccc2[nH]1 (some centres undefined) [cmdc.202100576, 18b] | 30 | 
37 | C=C(N[C@H](C=O)CC1CCNC1=O)[C@H](Cc1ccccc1)NC(=O)[C@@H](NC(=O)c1cncc(F)c1)C(C)C (some centres undefined) [cmdc.202100576, 18c] | 35 | 
38 | CC(C)[C@H](NC(=O)c1cc2ccccc2[nH]1)C(=O)N[C@@H](Cc1ccccc1)C(=O)N[C@H](C=O)CC1CCNC1=O (some centres undefined) [cmdc.202100576, 18d] | 50 | 
39 | O=C[C@H](CC1CCNC1=O)NC(=O)[C@H](Cc1ccccc1)NC(=O)c1ccc2c(c1)OCO2 (some centres undefined) [cmdc.202100576, 18e] | 100 | 
40 | CC(C)C(=O)Nc1ccc(N(C(=O)Cn2nnc3ccccc32)[C@H](C(=O)NCc2ccccc2)c2ccc(Cl)c(F)c2)cc1 [cmdc.202100576, 19b] | 800 | 
41 | CC(C)C(=O)Nc1ccc(N(C(=O)Cn2nnc3ccccc32)[C@H](C(=O)NCc2ccccc2)c2ccc(O)cc2)cc1 [cmdc.202100576, 19c] | 1100 | 
42 | CC(C)C(=O)Nc1ccc(N(C(=O)Cn2nnc3ccccc32)[C@H](C(=O)NCc2ccccc2)c2cccc(F)c2)cc1 [cmdc.202100576, 19d] | 1600 | 
43 | CC(C)(C)c1ccc(N(C(=O)c2c[nH]cn2)[C@H](C(=O)NC2CCCC2)c2cccnc2)cc1 [cmdc.202100576, 19e] | 1700 | 
44 | O=C(Nc1ccc(N(C(=O)Cn2nnc3ccccc32)[C@H](C(=O)NCc2ccccc2)c2ccsc2)cc1)C1CC1 [cmdc.202100576, 19f] | 2000 | 
45 | CC(C)(C)NC(=O)C(=O)[C@H](C[C@@H]1CCNC1=O)NC(=O)[C@H](CC1CCCCC1)NC(=O)[C@H](Cc1cccc2ccccc12)NC(=O)OCc1ccc(OCN2CCOCC2)cc1 [cmdc.202100576, 22b] | 6.6 | 
46 | COC(C)[C@H](NC(=O)OCc1ccccc1)C(=O)N[C@@H](CC(C)C)C(=O)N[C@@H](C[C@@H]1CCNC1=O)C(=O)C(=O)NC(C)C (some centres undefined) [cmdc.202100576, 22c] | 6.8 | 
47 | CC(C)C[C@H](NC(=O)[C@H](CN(C)C)NC(=O)OCc1ccccc1)C(=O)N[C@@H](C[C@@H]1CCNC1=O)C(=O)C(=O)NC(C)(C)C [cmdc.202100576, 22d] | 7 | 
48 | CC(C)C[C@H](NC(=O)[C@H](CN1CCOCC1)NC(=O)OCc1ccccc1)C(=O)N[C@@H](C[C@@H]1CCNC1=O)C(=O)C(=O)NC(C)C [cmdc.202100576, 22e] | 7 | 
49 | CC(C)C[C@H](NC(=O)[C@H](CN1CCC(F)CC1)NC(=O)OCc1ccccc1)C(=O)N[C@@H](C[C@@H]1CCNC1=O)C(=O)C(=O)NC(C)C [cmdc.202100576, 22f] | 7 | 
50 | Cc1cc(C(=O)N[C@@H](C)C(=O)N[C@H](C(=O)N[C@@H](CC(C)C)C(=O)N[C@H](C=CC(=O)OCc2ccccc2)C[C@@H]2CCNC2=O)C(C)C)no1 [the N3 Compound] | 9000 | 

These molecules were tested against Replicase polyprotein 1ab (Middle East respiratory syndrome-related coronavirus (isolate United Kingdom/H123990006/2012), UniProt K9N7C7) (assay: Various Assay).

Row | SMILES | IC50
51 | CC(C)C[C@H](NC(=O)OC1CCN(C(=O)OC(C)(C)C)CC1)C(=O)N[C@@H](C[C@@H]1CCNC1=O)C(O)S(=O)(=O)O (some centres undefined) [cmdc.202100576, 20b] | 300 nM and 600 nM
52 | CC(C)C[C@H](NC(=O)OC1CCN(S(C)(=O)=O)CC1)C(=O)N[C@@H](C[C@@H]1CCNC1=O)C(O)S(=O)(=O)O (some centres undefined) [cmdc.202100576, 20c] | 500 nM
53 | CC(C)C[C@H](NC(=O)OC1(Cc2ccccc2)CCN(C(=O)OC(C)(C)C)CC1)C(=O)N[C@@H](C[C@@H]1CCNC1=O)C(O)S(=O)(=O)O (some centres undefined) [cmdc.202100576, 20d] | 600 nM
54 | CC(C)C[C@H](NC(=O)OCCc1cccc(Cl)c1)C(=O)N[C@@H](C[C@@H]1CCNC1=O)C(O)S(=O)(=O)O (some centres undefined) [cmdc.202100576, 20f] | 700 nM
55 | O=C(NC1CCCCC1)C(=O)[C@H](C[C@@H]1CCCNC1=O)NC(=O)[C@H](CC1CCCCC1)NC(=O)c1cc2ccccc2o1 [cmdc.202100576, 23b] | < 1 nM
56 | O=C(NCc1ccccc1)C(=O)[C@H](C[C@@H]1CCCNC1=O)NC(=O)[C@H](Cc1ccccc1)NC(=O)c1cc2ccccc2[nH]1 [cmdc.202100576, 23c] | < 1 nM
57 | O=C(NCc1ccccc1)C(=O)[C@H](C[C@@H]1CCCNC1=O)NC(=O)[C@H](Cc1ccccc1)NC(=O)c1cnc2ccccc2n1 [cmdc.202100576, 23d] | 2 nM
58 | O=C(NCc1ccccc1)C(=O)[C@H](C[C@@H]1CCCNC1=O)NC(=O)[C@H](CC1CCCCC1)NC(=O)c1cc2ccccc2[nH]1 [cmdc.202100576, 23e] | 2 nM
59 | O=C(NCc1ccccc1)C(=O)[C@H](C[C@@H]1CCCNC1=O)NC(=O)[C@H](CC1CCCCC1)NC(=O)c1cnc2ccccc2n1 [cmdc.202100576, 23f] | 5 nM
